For data set [1], the system named is IL-1β levels in the peritoneal fluid, carrageenan-challenged mice. Briefly: Mouse carrageenan peritoneal inflammation. Type of data set: in vivo. The note with it: oral administration; 214e at 50 mg/kg; result in words. On the procedure: Mouse Carrageenan Peritoneal Inflammation
Inflammation was induced in mice with an intraperitoneal (IP) injection of 10 mg carrageenan in 0.5 ml of saline (Griswold et al., Inflammation, 13, pp. 727-739 (1989)). Drugs are administered by oral gavage in ethanol/PEG/water, β-cyclodextrin, labrosol/water or cremophor/water vehicle. The mice are sacrificed at 4 hours post carrageenan administration, then injected IP with 2 ml of saline containing 5 U/ml heparin. After gentle massage of the peritoneum, a small incision is made, the contents collected and volume recorded. Samples are kept on ice until centrifuged (130×g, 8 mins at 4° C.) to remove cellular material, and the resultant supernatant stored at −20° C. IL-1β levels in the peritoneal fluid are determined by ELISA.

Data set [2] has as its system male DBA/1J mice, type II collagen-induced arthritis. As to the kind of experiment: Type II collagen-induced arthritis. Type of data set: in vivo, mouse. The note with it: oral gavage twice a day 10, 25 and 50 mg/kg (214e: 50 mg/kg once a day), Arthritis Severity Score, result in words. On the procedure:
Type II Collagen-Induced Arthritis
Type II collagen-induced arthritis was established in male DBA/1J mice at described Wooley and Geiger (Wooley, P. H., Methods in Enzymology, 162, pp. 361-373 (1988) and Geiger, T., Clinical and Experimental Rheumatology, 11, pp. 515-522 (1993)). Chick sternum Type II collagen ([…] in 10 mM acetic acid) was emulsified with an equal volume of Freund's complete adjuvant (FCA) by repeated passages (400) between two 10 ml glass syringes with a gauge 16 double-hub needle. Mice were immunized by intradermal injection (50 μl; […], CII per mouse) of collagen emulsion 21 days later at the contra-lateral side of the tail base. Drugs were administered twice a day (10, 25 and 50 mg/kg) by oral gavage approximately 7 h apart. Vehicles used included ethanol/PEG/water, β-cyclodextrin, labrosol/water or cremophor/water. Drug treatments were initiated within 2 h of the CII booster immunization. Inflammation was scored on a 1 to 4 scale of increasing severity on the two front paws and the scores are added to give the final score.

Data set [3] in a line: In vivo bioavailability determination (oral, rat). On the procedure:
In Vivo Bioavailability Determination
The drugs (10-100 mg/kg) were dosed orally to rats (10 mL/kg) in ethanol/PEG/water, β-cyclodextrin, labrosol/water or cremophor/water. Blood samples were drawn from the carotid artery at 0.25, 0.50, 1, 1.5, 2, 3, 4, 6, and 8 hours after dosing, centrifuged to plasma and stored at −70° C. until analysis. Aldehyde concentrations were determined using an enzymatic assay. Pharmacokinetic analysis of data was performed by non-linear regression using RStrip (MicroMath Software, UT).

Data set [4] relates to IL-1β, human PBMC. As to the kind of experiment: Human PBMC assay (Example 27): IL-1β production. Format: cell-based. The note with it: Homo sapiens, PBMC; Table 22; read-out: Cell PBMC avg. IC50. The protocol: Since the processing and secretion of biologically active IGIF is mediated by ICE, we compared the activity of a reversible ICE inhibitor (Ac-YVAD-CHO) on IL-1β and IFN-γ production in a peripheral blood mononuclear cell (PBMC) assay (Examples 27).
Human buffy coat cells were obtained from blood donors and peripheral blood mononuclear cells (PBMC) were isolated by centrifugation in LeukoPrep tubes (Becton-Dickinson, Lincoln Park, N.J.). PBMC were added (3×10^6/well) to 24 well Corning tissue culture plates and after 1 hr incubation at 37° C., non-adherent cells were removed by gently washing. Adherent mononuclear cells were stimulated with LPS (1 μg/ml) with or without ICE inhibitor in 2 ml RPMI-1640-10% FBS. After 16-18 hr incubation at 37° C., IGIF and IFN-γ were quantitated in culture supernatants by ELISA.

pIC50: −log10 of the molar value.

The values below come from patent US20120165319A1, “INHIBITORS OF INTERLEUKIN-1 BETA CONVERTING ENZYME” (VERTEX PHARMACEUTICALS INCORPORATED, priority 1995, published 2012).

As for `O=C[C@H](CC(=O)O)NC(=O)[C@@H]1CCCN2C(=O)CC[C@H](NC(=O)c3ccccc3)C(=O)N12` [Compound 214e, [3S(1S,9S)]3-(9-Benzoylamino-6,10-dioxo-1,2,3,4,7,8,9,10-octahydro-6H-pyridazino[1,2-a][1,2]-diazepine-1-carboxamido)-4-oxobutanoic acid], in data set [1], the “inhibition of IL-1β production in carrageenan-challenged mice” value is on record as “did not inhibit IL-1β production”. The “inhibition of inflammation / progression of type II collagen-induced arthritis” value in data set [2] is listed as “did not inhibit inflammation”. The “blood levels of drug when dosed orally” value in data set [3] (oral 10-100 mg/kg, result in words) was “not detected”. In addition, in data set [3] (oral, dose 45 mg/kg), the “Drug Availability” value is given as 0.9%. Besides, the Cmax (as a rule, the peak of the concentration-time curve) in data set [3] (plasma, oral, dose 45 mg/kg, read-out: Cmax) was 200 ng/mL.
On to `O=C[C@H](CC(=O)O)NC(=O)[C@@H]1CCCN2C(=O)CC[C@H](NC(=O)c3nccc4ccccc34)C(=O)N12` [Compound 412, [3S(1S,9S)]3-[6,10-Dioxo-9-(isoquinolin-1-oylamino)-1,2,3,4,7,8,9,10-octahydro-6H-pyridazino[1,2-a][1,2]diazepine-1-carboxamido]-4-oxobutanoic acid], for which the pIC50 (commonly the IC50 on a negative log10 scale, so that one unit is a factor of ten) in data set [4] was 6.24.
